Assay results taken from patent US20250304537A1 (Repare Therapeutics Inc., priority 2022, published 2025).
Read-outs that look alike come from different tables or passages of the source.

Columns and labels:
[1] = test system: PKMYT1 (CDK1 pThr14) in FUOV1 cells; test: PKMYT1 cell-based activity assay, CDK1 pThr14 AlphaLISA in FUOV1 cells; settings: read-out: FUOV-1 CDK1 pThr14 IC50
How it was run: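 FUOV1 cells were treated with PKMYT1 inhibitor for 2 h at 37 °C, then lysed. CDK1 pThr14 was measured by AlphaLISA, pairing an anti-pThr14 antibody with an anti-total CDK1 antibody (5 nM each). Signal read at 680/615 nm and used to derive IC50.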

[2] = target: recombinant human Myt1 (full length PKMYT1) (Homo sapiens (Human), UniProt Q99640); test: Recombinant human Myt1 kinase assay (ADP-Glo); type: biochemical; settings: 10 μM ATP
How it was run: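 Full-length insect-cell-expressed human Myt1 (18 nM final) was preincubated with compound (0.5% DMSO) for 15 min at 22 °C. The reaction ran with 10 μM ATP for 60 min at 30 °C in HEPES buffer with Mg2+/Mn2+ and DTT. ADP formed was read by ADP-Glo luminescence, giving IC50 and % max inhibition.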

recombinant human Myt1 (full length PKMYT1), sequence (Q99640 whole entry): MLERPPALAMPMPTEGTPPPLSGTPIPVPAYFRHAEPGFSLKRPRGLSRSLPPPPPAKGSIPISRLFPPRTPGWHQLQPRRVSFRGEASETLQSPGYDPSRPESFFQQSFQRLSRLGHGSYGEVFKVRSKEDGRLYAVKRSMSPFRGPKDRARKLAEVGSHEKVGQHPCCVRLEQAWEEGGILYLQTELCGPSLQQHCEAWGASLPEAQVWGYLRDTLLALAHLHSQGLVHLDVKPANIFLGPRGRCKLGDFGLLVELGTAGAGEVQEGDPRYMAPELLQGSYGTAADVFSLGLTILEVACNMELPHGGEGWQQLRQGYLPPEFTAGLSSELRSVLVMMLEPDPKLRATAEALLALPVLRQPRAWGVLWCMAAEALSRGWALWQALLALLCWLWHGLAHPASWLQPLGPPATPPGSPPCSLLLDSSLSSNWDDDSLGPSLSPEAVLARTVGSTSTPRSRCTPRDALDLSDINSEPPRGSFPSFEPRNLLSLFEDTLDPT

Compound `Cc1ccc(O)c(C)c1-c1cc(-c2cncnc2)nc(C(N)=O)c1N` [Compound 71] has an IC50 ([1]; 2 h, 2 h incubation) of 298 nM and an IC50 [2] of 9 nM.
For `Cc1ccc2[nH]ncc2c1-c1cc(-c2ccnc(NC3CC3)n2)nc(C(N)=O)c1N` [Compound 163], the IC50 ([1]; 2 h, 2 h incubation) was 436 nM and the IC50 [2] was 11 nM.
In the case of `Cc1ccc2[nH]ncc2c1-c1cc(-c2cccc(OCc3cccnc3)n2)nc(C(N)=O)c1N` [Compound 179], the IC50 ([1]; 2 h, 2 h incubation) is reported as 423 nM and the IC50 [2] is reported as 7 nM.
`Cc1ccc2[nH]ncc2c1-c1nc(-c2ccccc2NC(C)C(F)(F)F)nc(C(N)=O)c1N` (stereo not drawn) [Compound 381, 5-amino-6-(5-methyl-1H-indazol-4-yl)-2-(2-((1,1,1-trifluoropropan-2-yl)amino)phenyl)pyrimidine-4-carboxamide] gave an IC50 ([1]; 2 h, 2 h incubation) of 13 nM and an IC50 [2] of 11 nM.
Work on `Cc1ccc2[nH]ncc2c1-c1cc(-c2cccc(OC[C@H](N)c3ccccc3)n2)nc(C(N)=O)c1N` (atropisomer, axis not shown) [Compound 338] yielded an IC50 ([1]; 2 h incubation) of 284 nM and an IC50 [2] of 165 nM.
`Cc1cc(Nc2cc(F)ccc2-c2nc(C(N)=O)c(N)c(-c3c(C)ccc4[nH]ncc34)n2)cc(C)n1` [Compound 624] showed an IC50 ([1]; 2 h, 2 h compound incubation) of 489 nM and an IC50 [2] of 8 nM.
`Cc1ccc2[nH]ncc2c1-c1cc(-c2cccc(OCc3nccs3)n2)nc(C(N)=O)c1N` [Compound 261] was tested, and the IC50 ([1]; 2 h, 2 h incubation) was 544 nM and the IC50 [2] was 6 nM.
For `Cc1ccc2[nH]ncc2c1-c1cc(-c2cccc(OCc3cccnn3)n2)nc(C(N)=O)c1N` (atropisomer, axis not shown) [Compound 260], the IC50 ([1]; 2 h incubation) was 167 nM and the IC50 [2] was 4 nM.
Work on `Cc1ccc2[nH]ncc2c1-c1cc(-c2ccnc(OC3CCOC3)n2)nc(C(N)=O)c1N` (stereo not drawn) [Compound 212] yielded an IC50 ([1]; 2 h, 2 h incubation) of 192 nM and an IC50 [2] of 12 nM.
Compound `Cc1ccc2[nH]ncc2c1-c1cc(-c2cccc(OCc3nccn3C)n2)nc(C(N)=O)c1N` [Compound 249] has an IC50 ([1]; 2 h, 2 h incubation) of 85 nM and an IC50 [2] of 5 nM.
With `NC(=O)c1nc(-c2ccccc2)nc(-c2c(Cl)ccc3[nH]ncc23)c1N` [Compound 115, 5-amino-6-(5-chloro-1H-indazol-4-yl)-2-phenylpyrimidine-4-carboxamide] the IC50 ([1]; 2 h, 2 h incubation) was 2230 nM and the IC50 [2] was 15 nM.
`NC(=O)c1nc(-c2ccccc2)nc(-c2ccc(F)c3[nH]ncc23)c1N` [Compound 121] was tested, and the IC50 ([1]; 2 h, 2 h incubation) was over 10000 nM and the IC50 [2] was 49 nM.
`Cc1ccc2[nH]ncc2c1-c1nc(-c2ccccc2NC(=O)C2(C)CC2)nc(C(N)=O)c1N` [Compound 401] was tested, and the IC50 ([1]; 2 h, 2 h compound incubation) was 4 nM and the IC50 [2] was 5 nM.
`COC(C)(C)C(=O)Nc1ccccc1-c1nc(C(N)=O)c(N)c(-c2c(C)ccc3[nH]ncc23)n1` [Compound 420] showed an IC50 ([1]; 2 h, 2 h compound incubation) of 65 nM and an IC50 [2] of 7 nM.
`Cc1ccc(O)c(C)c1-c1cc(-c2c[nH]cn2)nc(C(N)=O)c1N` [Compound 43] was tested, and the IC50 ([1]; 2 h, 2 h incubation) was 336 nM and the IC50 [2] was 6 nM.
`COCC(Oc1nccc(-c2cc(-c3c(C)ccc4[nH]ncc34)c(N)c(C(N)=O)n2)n1)c1ccccc1` (stereo not drawn) [Compound 206] was tested, and the IC50 ([1]; 2 h, 2 h incubation) was 554 nM and the IC50 [2] was 8 nM.
`Cc1ccc2[nH]ncc2c1-c1nc(-c2cccnc2Nc2cccc(C(N)=O)c2)nc(C(N)=O)c1N` [Compound 609] gave an IC50 ([1]; 2 h, 2 h compound incubation) of 414 nM and an IC50 [2] of 4 nM.
For `Cc1ccc2[nH]ncc2c1-c1nc(-c2cn(C)nc2NC2CC(F)(F)C2)nc(C(N)=O)c1N` [Compound 896], the IC50 ([1]; 2 h, 2 hours with compound) was 147 nM and the IC50 [2] was 4 nM.
Compound `CSc1nccc(-c2cc(-c3c(C)ccc4[nH]ncc34)c(N)c(C(N)=O)n2)n1` [Compound 167] has an IC50 ([1]; 2 h, 2 h incubation) of 414 nM and an IC50 [2] of 8 nM.
With `Cc1ccc2[nH]ncc2c1-c1nc(-c2ccccc2NC(=O)C2CC(F)(F)C2)nc(C(N)=O)c1N` [Compound 415] the IC50 ([1]; 2 h, 2 h compound incubation) was 210 nM and the IC50 [2] was 8 nM.
With `Cc1ccc(O)c(C)c1-c1cc(-c2nccc3ccccc23)nc(C(N)=O)c1N` [Compound 48] the IC50 ([1]; 2 h, 2 h incubation) was 7740 nM and the IC50 [2] was 55 nM.
For `Cc1ccc2[nH]ncc2c1-c1nc(-c2ccccc2NCC(F)F)cc(C(N)=O)c1N` [Compound 412], the IC50 ([1]; 2 h, 2 h compound incubation) was 223 nM and the IC50 [2] was 4 nM.
Compound `Cc1ccc(O)c(C)c1-c1cc(-c2ccnc(N)c2)cc(C(N)=O)c1N` [Compound 64] has an IC50 ([1]; 2 h, 2 h incubation) of 260 nM and an IC50 [2] of 6 nM.
Compound `Cc1ccc2[nH]ncc2c1-c1nc(-c2ccccc2NC(=O)C2CC(C)(C)C2)nc(C(N)=O)c1N` [Compound 417] has an IC50 ([1]; 2 h, 2 h compound incubation) of 899 nM and an IC50 [2] of 18 nM.
For `COc1ccc(-c2cc(-c3c(C)ccc(O)c3C)c(N)c(C(N)=O)n2)nc1` [Compound 59], the IC50 ([1]; 2 h, 2 h incubation) was 59 nM and the IC50 [2] was 4 nM.
Compound `Cc1ccc2[nH]ncc2c1-c1cc(-c2ccnc(OC(C)C)n2)nc(C(N)=O)c1N` [Compound 160, 3-amino-6-(2-isopropoxypyrimidin-4-yl)-4-(5-methyl-1H-indazol-4-yl)picolinamide] has an IC50 ([1]; 2 h, 2 h incubation) of 388 nM and an IC50 [2] of 7 nM.
`Cc1ccc2[nH]ncc2c1-c1nc(-c2ccc(C(F)(F)F)cc2NC(=O)C2(C)CC2)nc(C(N)=O)c1N` [Compound 454, 5-amino-6-(5-methyl-1H-indazol-4-yl)-2-(2-(1-methylcyclopropane-1-carboxamido)-4-(trifluoromethyl)phenyl)pyrimidine-4-carboxamide] was tested, and the IC50 ([1]; 2 h, 2 h compound incubation) was 447 nM and the IC50 [2] was 26 nM.
`COc1ccc(-c2cc(-c3c(C)ccc(O)c3C)c(N)c(C(N)=O)n2)nc1` [Compound 61] gave an IC50 ([1]; 2 h incubation) of 68 nM and an IC50 [2] of 2 nM.
`Cc1ccc2[nH]ncc2c1-c1nc(-c2ccccc2S(=O)(=O)NC(C)(C)C)nc(C(N)=O)c1N` [Compound 792] was tested, and the IC50 ([1]; 2 h, 2 h compound incubation) was over 10000 nM and the IC50 [2] was 10100 nM.
`NC(=O)c1nc(-c2ccccc2NC(=O)C2(C(F)(F)F)CC2)nc(-c2c(Cl)ccc3[nH]ncc23)c1N` [Compound 411] gave an IC50 ([1]; 2 h, 2 h compound incubation) of 60 nM and an IC50 [2] of 7 nM.
`Cc1ccc2[nH]ncc2c1-c1cc(-c2cccc(OCc3ncco3)n2)nc(C(N)=O)c1N` [Compound 267] was tested, and the IC50 ([1]; 2 h incubation) was 191 nM and the IC50 [2] was 4 nM.
`CCNC(=O)c1ccccc1-c1nc(C(N)=O)c(N)c(-c2c(C)ccc3[nH]ncc23)n1` [Compound 807] was tested, and the IC50 ([1]; 2 h, 2 hours with compound) was over 10000 nM and the IC50 [2] was 4050 nM.
With `CCC(COC)Oc1nccc(-c2cc(-c3c(C)ccc4[nH]ncc34)c(N)c(C(N)=O)n2)n1` (stereo not drawn) [Compound 221] the IC50 ([1]; 2 h, 2 h incubation) was 270 nM and the IC50 [2] was 7 nM.
In the case of `COCCOc1nccc(-c2cc(-c3c(C)ccc4[nH]ncc34)c(N)c(C(N)=O)n2)n1` [Compound 166], the IC50 ([1]; 2 h, 2 h incubation) is reported as 109 nM and the IC50 [2] is reported as 3 nM.
Work on `Cc1ccc2[nH]ncc2c1-c1cc(-c2cccc(OCC3(N)CC3)n2)nc(C(N)=O)c1N` [Compound 353] yielded an IC50 ([1]; 2 h, 2 h incubation) of 20 nM and an IC50 [2] of 7 nM.
For `Cc1ccc2[nH]ncc2c1-c1cc(-c2ccnc(N3CCCC3)n2)nc(C(N)=O)c1N` [Compound 174], the IC50 ([1]; 2 h, 2 h incubation) was 939 nM and the IC50 [2] was 10 nM.
`Cc1ccc2[nH]ncc2c1-c1nc(-c2ccccc2NC(=O)C2(F)CC2)nc(C(N)=O)c1N` [Compound 461] was tested, and the IC50 ([1]; 2 h, 2 h compound incubation) was 6 nM and the IC50 [2] was 3 nM.
With `NC(=O)c1nc(-c2ccccc2)nc(-c2cccc3[nH]ncc23)c1N` [Compound 68] the IC50 ([1]; 2 h, 2 h incubation) was over 10000 nM and the IC50 [2] was 50 nM.
`Cc1ccc2[nH]ncc2c1-c1cc(-c2ccnc(N[C@H](CO)c3ccccc3)n2)nc(C(N)=O)c1N` (atropisomer, axis not shown) [Compound 371] showed an IC50 ([1]; 2 h, 2 h incubation) of 2420 nM and an IC50 [2] of 466 nM.
In the case of `Cc1ccc2[nH]ncc2c1-c1cc(-c2cccc(OCc3ncccn3)n2)nc(C(N)=O)c1N` [Compound 184], the IC50 ([1]; 2 h, 2 h incubation) is reported as 51 nM and the IC50 [2] is reported as 6 nM.
`CNCCOc1nccc(-c2cc(-c3c(C)ccc4[nH]ncc34)c(N)c(C(N)=O)n2)n1` [Compound 210] gave an IC50 ([1]; 2 h, 2 h incubation) of 335 nM and an IC50 [2] of 10 nM.
With `Cc1ccc(O)c(C)c1-c1cc(-c2nccs2)cc(C(N)=O)c1N` [Compound 81] the IC50 ([1]; 2 h, 2 h incubation) was 112 nM and the IC50 [2] was 5 nM.
